Reference: US20210254000A1, “PROCESS FOR PRODUCING A T CELL COMPOSITION” (Juno Therapeutics, Inc., priority 2017, published 2021)
Read-outs that look alike come from different tables or passages of the source.

Legend:
Ribo-S6 phosphorylation = test: Inhibition of ribosomal protein S6 phosphorylation in stimulated primary human T cells (flow cytometry); format: cell-based
Experimental: The dose effect of exemplary mTOR kinase inhibitors in primary human T cells was assessed by monitoring inhibition of ribosomal protein S6.
CD4+ and CD8+ T cells were isolated by immunoaffinity-based enrichment from leukapheresis samples from human donor subjects. Isolated CD4+ and CD8+ T cells were mixed 1:1 and stimulated with anti-CD3/anti-CD28 magnetic beads in the presence of increasing concentrations of an mTOR kinase inhibitor, PI-103, Compound 155, Compound 63, or Compound 246. The T cell cultures were incubated overnight (approximately 16 hr) at 37° C. Following incubation in the presence of PI-103, Compound 155, Compound 63, or Compound 246, T cells were assessed for intracellular S6 phosphorylation and co-stained for surface expression of CD4 or CD8, by flow cytometry.

[1] = tested on: anti-CD19 CAR-T cells co-cultured with irradiated K562-CD19 target cells; test: Cytokine secretion after antigen stimulation (Luminex); format: cell-based, human; conditions: cells expanded with 200 nM PI-103 or 1 μM Compound 63; E:T 1:1, ~16 hours
Experimental: (§1) Separate compositions of CD4+ and CD8+ cells were isolated from three human donors, activated and transduced with a viral vector encoding an anti-CD19 CAR substantially as described in Example 2. After transduction, the CD4+ and CD8+ T cells derived from each donor were separately incubated for 8 days in the presence of a mTOR kinase inhibitor to expand T cells substantially as described in Example 2, except in the presence of 200 nM PI-103, 1 μM Compound 63, or with DMSO vehicle or media only controls. CD4+ and CD8+ T cells from each donor were then separately harvested, formulated, and cryofrozen. The cryofrozen engineered CD4+ and CD8+ T cells were thawed, washed to remove compound, and cells from the same donor were then combined at a ratio of 1:1 viable CD4+/CAR+ to viable CD8+/CAR+ T cells to produce an expanded anti-CD19 CAR-T cell composition containing CD4+ and CD8+ T cells. Functional activities of the generated anti-CD19 CAR-T cell compositions were assessed.
To measure cytokines following antigen stimulation, cells from the generated anti-CD19 CAR-T cell compositions were co-cultured with irradiated K562-CD19 target cells or K562 parental target cells at an effector:target cell ratio of 1:1. After overnight (˜16 hours) culture, cell culture supernatants were harvested and TNF-alpha, IFN-gamma, and IL-2 cytokine production were measured using a Luminex Multiplex Assay. The fold-change of cytokine production observed in co-culture supernatants was determined from generated anti-CD19 CAR-T cell compositions expanded in the presence of PI-103, Compound 63, or DMSO vehicle compared to cells expanded in media only.

[2] = tested on: anti-CD19 CAR-T cells stimulated with irradiated K562-CD19 target cells; test: Secondary cytokine response after anti-idiotype bead expansion; format: cell-based, human; conditions: for secondary cytokine production following subsequent stimulation with antigen: cells harvested at day 11 after anti-idiotype bead expansion, K562-CD19 1:1, approximately 16 hours
[3] = tested on: CAR-T cells incubated with CD19-expressing target cells; test: Intracellular and secreted cytokines of CAR-T cells (mixed CD4+/CD8+ process); format: cell-based, human; conditions: for levels of secreted cytokines (IL-2, TNF-alpha, IFN-gamma) in supernatants: 20 hours with CD19-antigen expressing cells, ELISA; for polyfunctional effector cytokine profiles (IL-2, TNF-alpha, IFN-gamma) compared to DMSO: CD8+ and CD4+ subsets, primary or secondary stimulation, golgi inhibitor 5 hours
Experimental: Separate compositions of CD4+ and CD8+ cells were selected from isolated PBMCs from a leukapheresis sample from the same human donor by immunoaffinity based selection, and the selected cell compositions were cryofrozen. The separate compositions of CD4+ and CD8+ T cells were subsequently thawed and mixed at a ratio of 1:1 of viable CD4+ T cells to viable CD8+ T cells. In this study, the mixed CD4+ and CD8+ cell populations were incubated in the presence of Compound 63, PI103 or no inhibitor (DMSO vehicle control) beginning at the initiation of stimulation. In more detail, the mixed CD4+ and CD8+ T cell composition was stimulated (in the presence or absence of an inhibitor, as indicated) in the presence of paramagnetic polystyrene-coated beads with attached anti-CD3 and anti-CD28 antibodies for between 18 to 30 hours, and were then transduced with a lentiviral vector encoding an anti-CD19 CAR. The CAR contained an scFv antigen-binding domain specific for CD19 (derived from FMC63), a CD28 transmembrane region, a 4-1BB costimulatory signaling region, and a CD3-zeta derived intracellular signaling domain. The cells were then expanded in the presence of cytokines typically for approximately 6-7 days. Beginning with stimulation and for the duration of the process, the media contained DMSO (vehicle control), 2 μM PI103 or 1 μM Compound 63. The vehicle control contained DMSO at a volume to match that in the mTOR inhibitor-treated samples. Expanded cells were cryopreserved. For assessment, the cryopreserved CAR-T cells were thawed and washed prior to assessment in assay media without supportive cytokines and without inhibitor or vehicle.
Intracellular cytokine levels were monitored in cells of co-cultures incubated with freshly thawed generated CAR-T cells or CAR-T cells after secondary restimulation with CD19-expressing target cells. CAR-T cells were incubated with target-expressing cells in the presence of golgi inhibitor for 5 hours. Intracellular expression of IL-2, TNF-alpha and IFN-gamma was determined and a polyfunctional score was calculated by gating for cumulative CAR-T cells positive for IL-2 and any combination of IFN-gamma and TNF-alpha. […] Generated CAR-T cells were also cultured with CD19-antigen expressing cells for 20 hours and levels of IL-2, TNF-alpha and IFN-gamma were assessed in cell culture supernatants by ELISA.

anti-CD19 CAR-T cells = test: CAR-specific expansion with anti-idiotype antibody conjugated beads; format: cell-based, human; conditions: anti-idiotype beads 1:1, 15 days; relative to media only
Experimental: as §1, with “The cryofrozen engineered CD4+ and CD8+ T cells were thawed, washed to remove compound, and cells from the same donor were then combined at a ratio of 1:1 viable CD4+/CAR+ to viable CD8+/CAR+ T cells to produce an expanded anti-CD19 CAR-T cell composition containing CD4+ and CD8+ T cells.” left out
The ability of the cells to expand following stimulation of the CAR was assessed by incubating cells of the generated anti-CD19 CAR-T cell compositions with beads surface conjugated with an anti-idiotype antibody specific to the anti-CD19 CAR. […] The total live T cells per well was determined by counting cells in the cultures every 5 days (FIG. 8A). The mean area under the curve (AUC) as a function of T cell number over time was calculated relative to the AUC of cells expanded with media only (FIG. 8B).

[4] = Homo sapiens, T-cell, CD8+ T cells, read-out: IC50 for inhibition of Ribo-S6 phosphorylation, CD8
[5] = Homo sapiens, CD4+ T cells, read-out: IC50 for inhibition of Ribo-S6 phosphorylation, CD4
[6] = T-cell, primary human CD4+/CD8+ T cells mixed 1:1, anti-CD3/anti-CD28 beads, approximately 16 hr, read-out: IC50 for the inhibition of S6 phosphorylation in the T cells

Row | SMILES | IC50 (Ribo-S6 phosphorylation; [4]) | IC50 (Ribo-S6 phosphorylation; [5]) | IC50 (Ribo-S6 phosphorylation; [6]) | cytokine production (TNF-alpha, IFN-gamma, IL-2) compared to control cells [1] | production of IFN-gamma compared to control cells [1] | secondary cytokine production following subsequent stimulation with antigen [2] | frequency of CD8+ T cells that were CD107a+IFNγ+ ([2]; some donor-derived cells, day 11, Golgi Inhibitor 4 hours) | levels of secreted cytokines (IL-2, TNF-alpha, IFN-gamma) in supernatants [3] | polyfunctional effector cytokine profiles (IL-2, TNF-alpha, IFN-gamma) compared to DMSO [3] | mean AUC of live T cell number over time compared to DMSO vehicle (anti-CD19 CAR-T cells)
1 | CC(C)c1ccccc1-n1c(=O)[nH]c2c(C(N)=O)nc(-c3cccc(O)c3)nc21 [Compound 63, 2-(3-Hydroxyphenyl)-9-(2-isopropylphenyl)-8-oxo-8,9-dihydro-7H-purine-6-carboxamide] | 503 nM | 468 nM | ~500 nM | improvements in cytokine production | improved | improved secondary cytokine production | increased frequency of CD8+ T cells that were CD107a+IFNγ+ cells | increased levels of secreted cytokines | improved polyfunctional effector cytokine profiles | larger mean AUC
2 | Oc1cccc(-c2nc(N3CCOCC3)c3oc4ncccc4c3n2)c1 [PI-103, reference compound] | 88.4 nM | 121 nM | ~100 nM | improvements in cytokine production | improved | improved secondary cytokine production | – | increased levels of secreted cytokines | improved polyfunctional effector cytokine profiles | larger mean AUC
